In patent publication US20250034264A1, “REGULATING T CELL IMMUNE RESPONSE THROUGH IGF-I RECEPTOR (IGF-1R)” (The Regents of the University of Michigan, priority 2021, published 2025):

Legend:
Assay type in all cases: cell-based, human
[1] = tested on: purified, isolated cultured CD3+CD4+ T cells; assay: IL-17A and INFγ in purified, isolated cultured T cells (flow cytometry)
Experimental: Invariably, a small population of tightly adherent T cells were found in the fibrocyte cultures, consistent with the previous findings. Culture viability was routinely verified to be >90%. CD4^+ T cells were enriched using the CD4 isolation cocktail (Cat #0.130-096-533, Miltenyi Biotec, San Diego, CA) followed by negative selection using a magnetic column (Cat #0.130-042-401) according to manufacturer's protocol. Fibrocytes and isolated T cells were cultured and remained untreated or were incubated with human IgG isotype control (5 μg/ml) or teprotumumab (50 μg/mL) for 7 to 9 days. Single cell suspensions were stained with anti-human CD4, CD3, CD34, MHC-2, CD80, CD86, and PD-L1 (BD Biosciences) for 30 min, rinsed and fixed with CytoPerm/CytoFix (BD). They were then stained with anti-human INFγ and IL-17A for 20 min, rinsed, and subjected to the flow cytometry analysis. Gated CD34^+CXCR4^+ fibrocytes and CD4^+CD3^+ T cells were analyzed using quadrant settings based on negative isotype staining.
In vitro studies of CD34^+ fibrocytes and T cells PBMC and GD-OF monolayers were treated in vitro with human IgG isotype control (5 μg/ml), teprotumumab (50 μg/mL), H7 (5 μg/mL), linsitinib (1 μM), bTSH (5 mIU/mL), M22 (1 μg/mL), or IGF-1 (10 nM) for the intervals indicted in the figure legends in a 37° C., 5% CO2, humidified incubator until confluent. Brefeldin A (0.66 μl/ml), (Golgi Stop™, BD Biosciences), phorbol 12-myristate 13-acetate (PMA) (50 ng/ml) and ionomycin (1 μg/mL) were added for 5 h. Cells were rinsed with flow cytometry buffer (1×PBS, 0.5% BSA, 0.1% sodium azide) and stained with the relevant monoclonal antibodies.

GD-OF = assay: IL-23p19 and IL-12p35 mRNA expression, real-time PCR
Experimental: FIGS. 10A-10F are graphs showing the divergent effect of teprotumumab on bTSH induced IL-23p19 and IL-12p35 expression on fibrocytes and GD-OF. Rinsed fibrocyte and GD-OF monolayers were incubated with or without 50 μg/ml teprotumumab (FIGS. 10A and 10B) or 1 μM linsitinib (FIGS. 10C and 10D) and human Isotype IgG for 7-9 d, and bTSH (5 mIU/mL) was added for 6 h. Harvested RNA was reverse transcribed and isolated cDNA was subjected to quantitative real-time PCR for IL-23p19 and IL-12p35 mRNA levels. Values were normalized to their respective GAPDH levels and are expressed as the mean±SD of three independent determinations. Experiments were repeated three times. FIGS. 10E and 10F are graphs showing the levels of IL-23 protein when rinsed fibrocyte and GD-OF monolayers were incubated with or without 50 μg/ml teprotumumab. **, p<0.01; ***. P<0.001.
FIGS. 15A-15C are dose-response curves of teprotumumab effects on IL-6 expression/induction by bTSH (FIG. 15A); HAS2 expression/induction by bTSH (FIG. 15B); IL-12p35 expression/induction by bTSH (FIG. 15C). Following indicated treatments, cellular RNA was harvest from rinsed GD-OF cell layers, reversed transcribed and subjected to real-time PCR. Values were normalized to their respective GAPDH levels.
Graves' disease-orbital fibroblast (GD-OF) preparation and cultivtion GD-OF were isolated from orbital adipose/connective tissues removed during surgical orbital decompression surgery, as described ((Smith, T. J., et al., (2002) The Journal of clinical endocrinology and metabolism 87, 385-392). While the fraction of CD34^+ OF comprising GD-OF strains vary somewhat, the ratios of CD34^+/CD34^− OF are usually 50:50 in the early passages utilized in these studies (passages 2-11). Pure CD34^+ OF and CD34^− OF subsets were generated by staining for 30 m at 4° C. with fluorescein isothiocyanate-conjugated […] CD34 or its isotype control followed by cytometric cell sorting using a FACSAria III (BD Biosciences) instrument. Cells were sorted under sterile conditions into either CD34^+ OF, and CD34 OF subsets which were then re-cultured and treated without or with bTSH (5 mU/mL) or the other test compounds, as indicated, for 6 hrs, as indicated.
Real-time PCR Confluent fibrocyte and GD-OF cultures were incubated with bTSH (5 mIU/mL), teprotumumab (50 μg/mL) or linsitinib (1 μM) for the time intervals indicated, washed with PBS and RNA was extracted with the Aurum Total RNA Mini Kit (cat. #732-6820, Bio-Rad, Hercules, CA). Cellular RNA (2 μg) was reverse transcribed using QuantiTect Reverse Transcription kit (cat. #205314, Qiagen (Germantown, MD) and real-time PCR was performed using an Applied Biosystems instrument with QuantiTect SYBR Green PCR kit (cat. no. 204143; Qiagen, Frederick, MD). Primer sequences were as follows.

fibrocytes = assay: Hyaluronan (HA) production, ELISA; details: 50 μg/ml
Experimental: FIGS. 13A-13B are graphs showing the effect of teprotumumab on bTSH induced hyaluronan (HA) production in GD-OF (FIG. 13A) and fibrocytes (FIG. 13B). GD-OF were treated with or without teprotumumab (50 μg/ml) or human Isotype IgG (5 μg/ml) for 7-9 d and stimulated with bTSH (5 mIU/mL) for graded intervals indicated along the abscissa for 0 to 96h. Media were collected and subjected to HA ELISA. Values were normalized to respective cell layer protein levels and expressed as the mean±SD of three independent determinations. Experiments were repeated three times. FIGS. 13C-13F are graphs showing the divergent pattern of hyaluronan synthase (HAS) isoenzyme induction by bTSH in fibrocytes versus GD-OF and effects of teprotumumab (FIGS. 13C and 13D) and linsitinib (FIGS. 13E and 13F). Confluent monolayers of GD-OF and fibrocytes remained untreated or received teprotumumab (50 μg/ml) or linsitinib (1 μM) and human Isotype IgG for 7-9 d. Some cultures were treated with bTSH (5 mIU/mL) for 6h. Cellular RNA was harvested mRNA was reverse transcribed, and cDNA subjected to quantitative real-time PCR for HAS1 and HAS2. Values were normalized to their respective GAPDH levels and are expressed as the mean±SD of three independent determinations. Experiments were repeated three times. *, P<0.05; **, p<0.01; ***. P<0.001.
IL-12, IL-23, IL-10, HA and BAFF ELISAs. […]

[2] = teprotumumab 50 μg/ml or linsitinib 1 μM, 7-9 d

teprotumumab
INFγ MFI ([1]; 50 μg/mL, 9 d, control 10.23±0.99): 10.32±0.89
IL-17A MFI ([1]; 50 μg/mL, 9 d, control isotype MFI 12.69±0.19): 12.69±0.31
effect on cytokine (IL-17A, INFγ) expression levels ([1]; purified T cells without fibrocytes): no such effects
dose dependence of effects (FIG. 15: IL-6, HAS2, IL-12p35 expression/induction by bTSH) (GD-OF; dose-response curves, GD-OF): dose-dependent
IL-12p35 expression, basal and induction by bTSH (GD-OF; [2]): enhances
IL-23p19 expression, basal and induction by bTSH (GD-OF; [2]): inhibited
HA synthesis, bTSH with teprotumumab (fibrocytes): synergism
